Source: patent publication US7728029B2, “Adamantyl-pyrazole carboxamides as inhibitors of 11β-hdroxysteroid dehydrogenase” (Hoffmann-La Roche Inc., priority 2006, dated 2010)

Tests used:
human 11betaHSD1 = biological target: T1, human 11betaHSD1 (Homo sapiens, UniProt P28845); assay: Human Hek Assay: cortisone to cortisol conversion in HEK-293 cells stably transfected with human 11betaHSD1, cortisol by ELISA; assay type: cell-based; settings: HEK-293 cells transfected with human 11betaHSD1; 100 nM cortisone, 1 hour; read-out: humHEK (IC50)
T1 construct: stably transfected with full-length human 11betaHSD1 cDNA; expressed in transfected cells; host or cells: HEK-293
Procedure: HEK-293 cells stably transfected with full-length human 11betaHSD1 cDNA were propagated and expanded in DMEM high glucose media (Invitrogen Cat# 11995-065), supplemented with 10% FCS (Invitrogen Cat# 10082-147), pen/strep (10 μg/mL), and geneticin (10 μg/mL). One day prior to assay, cells were released from flasks using trypsin/EDTA, centrifuged, and washed with plating media (DMEM high glucose, without phenol red; Invitrogen Cat# 21063-029, supplemented with 2% charcoal stripped FCS; Gemini Cat# A22311P). From a 250,000 cells/mL suspension in plating media, 200 μL of cells were seeded into each well of a 96-well coated plate (BioCoat Cat#356461) and cultured overnight at 37° C. The following day, serially diluted 11betaHSD1 inhibitor compounds dissolved in DMSO were added to plating media supplemented with BSA (2 mg/mL final). The final DMSO concentration was 1%. Media was aspirated from plates, and compounds in media were added to each well. The plates were incubated at 37 degrees C. for 1 hour to allow for cellular uptake of compounds. 10 μL of substrate (cortisone) was then added to each well (100 nM final concentration) and incubated for 1 hour at 37 degrees C. Plates were then transferred to ice and 80 μL of media transferred to a 96-well plate and stored at −30° C.
Quantitation of cortisol in cell media was performed by competitive ELISA using ELISA-Light (Tropix Cat# T10206/EL100S4), anti-cortisol EIA antibody (Assay Designs, Inc. Cat#80-1148), and cortisol-enzyme conjugate (Assay Designs, Inc. Cat# 80-1147). 384-well plates (Falcon Cat#3988) were precoated with anti-mouse IgG (Sigma Cat# M-1397) suspended in 0.9% NaCl (5 mg/mL), 50 μL per well, overnight at 4 degrees C. Plates were washed with PBS, 0.1% Tween-20, then washed with PBS alone. Plates were blocked with Blocking Buffer (Tropix Cat# AI075) for 2 hours at room temperature. The plates were then washed as previously described. Assay samples were thawed, diluted 1:4 in DMEM, 2 mg/mL BSA, 1% DMSO, and 24 μL was transferred to wells of a pre-coated 384-well plate, as well as varying amounts of cortisol standard. To each well, 12 μL of cortisol-conjugate and 12 μL of anti-cortisol EIA antibody were added and incubated 2 hrs at room temperature on a orbital plate shaker. The wells were then emptied by inversion, then washed three times with 100 μL of Wash Buffer (Tropix), and then 2 times with 100 μL of Assay Buffer (Tropix). 60 μL of CDP-STAR (Tropix) was added to each well and incubated 10 minutes at room temperature. Chemiluminescence was measured using a Victor V Reader (Perkin Elmer). Cortisol in each sample was interpolated from a standard curve generated with known amounts of cortisol. IC50 values were calculated using the curve fitting software XLFit3 (IDBS).

human 11-β-HSD1 = biological target: T2, human 11-β-HSD1 (Homo sapiens, UniProt P28845); assay: Human H4IIE Assay: steroid conversion assay in H4IIe cells stably transfected with human 11-β-HSD1 cDNA, cortisol by ELISA; assay type: cell-based; settings: H4IIe cells transfected with human 11-β-HSD1; 200 nM cortisone, 120 minutes; read-out: HumH4IIe (IC50)
T2 construct: expressed in transfected cells; host or cells: H4IIe
Procedure: H4IIe cells stably transfected with the human 11-β-HSD1 cDNA (humH4IIe) were maintained in Dulbeccos Modified Essential Medium (DMEM)+10% fetal bovine serum (FBS) containing Penicillin (100 IU/ml) and Streptomycin (100 μg/ml), Geneticin (800 μg/ml) and L-Glutamine (2 mM) at 37° C. in a humidified atmosphere (95% air, 5% CO2).
humH4IIe cells at 80% confluence in a 225 cm^2 flask were washed with PBS then detached with warm Trypsin/EDTA. The cells were counted and resuspended in Dulbeccos Modified Essential Medium lacking phenol red (DMEM) containing 2% stripped serum, at a concentration of 100,000 cells per 200 μl, and plated in a 96-well cell culture plate (precoated with Poly-Lysine). The cells were incubated overnight at 37° C. in a humidified atmosphere (95% air, 5% CO2).
Conversion assays were performed one day after seeding 96-well plates. The media was removed and replaced with 100 ul Dulbeccos Modified Essential Medium without phenol red (DMEM) containing 2 mg/ml Bovine Serum Albumin (BSA)+1% DMSO or test compound dissolved in DMSO.
The cells were incubated with test compound for 60 minutes at 37° C. in a humidified atmosphere (95% air, 5% CO2). After 60 minutes, cortisone was added to 200 nM final, and the cells were incubated for 120 minutes at 37° C. in a humidified atmosphere (95% air, 5% CO2).
The reaction was stopped by transferring 80 μl of media to an empty 96-well plate. Samples were stored at −20° C. until assayed for cortisol concentration using an ELISA method.

T2 sequence (P28845 whole entry): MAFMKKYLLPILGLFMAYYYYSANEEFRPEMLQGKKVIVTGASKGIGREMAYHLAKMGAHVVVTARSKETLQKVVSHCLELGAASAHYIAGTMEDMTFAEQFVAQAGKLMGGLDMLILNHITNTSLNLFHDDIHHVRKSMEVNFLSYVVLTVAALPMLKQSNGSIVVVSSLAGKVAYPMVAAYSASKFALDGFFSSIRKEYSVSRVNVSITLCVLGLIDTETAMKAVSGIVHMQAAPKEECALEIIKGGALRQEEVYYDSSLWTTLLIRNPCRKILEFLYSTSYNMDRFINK
T1 sequence (P28845 whole entry): as above

| Molecule | IC50 (human 11betaHSD1) | IC50 (human 11-β-HSD1) |
| --- | --- | --- |
| Cn1ncc(C(=O)NC2C3CC4CC2CC(O)(C4)C3)c1-n1cccc1 (stereo not shown) [Example 1, 1-methyl-5-pyrrol-1-yl-1H-pyrazole-4-carboxylic acid (5-hydroxy-adamantan-2-yl)-amide] | 39.9 nM |  |
| Cn1ncc(C(=O)N[C@H]2C3CC4CC2C[C@](O)(C4)C3)c1-n1cccc1 [Example 2, trans-1-Methyl-5-pyrrol-1-yl-1H-pyrazole-4-carboxylic acid (5-hydroxy-adamantan-2-yl)-amide] | 22.2 nM |  |
| Cn1ncc(C(=O)NC2C3CC4CC(C3)CC2C4)c1Cl (stereo not shown) [Example 5, 5-Chloro-1-methyl-1H-pyrazole-4-carboxylic acid adamantan-2-ylamide] | 189 nM |  |
| CC(C)(C)n1ncc(C(=O)NC2C3CC4CC(C3)CC2C4)c1C(F)(F)F (stereo not shown) [Example 6, 1-tert-butyl-5-trifluoromethyl-1H-pyrazole-4-carboxylic acid adamantan-2-ylamide] | 9.8 nM |  |
| CC(C)(C)n1ncc(C(=O)N[C@H]2C3CC4CC2C[C@](O)(C4)C3)c1C(F)(F)F [Example 7, trans-1-tert-butyl-5-trifluoromethyl-1H-pyrazole-4-carboxylic acid (5-hydroxy-adamantan-2-yl)-amide] | 601 nM |  |
| CC(C)(C)n1ncc(C(=O)N[C@H]2C3CC4CC2C[C@@](O)(C4)C3)c1C(F)(F)F [Example 8, cis-1-tert-butyl-5-trifluoromethyl-1H-pyrazole-4-carboxylic acid (5-hydroxy-adamantan-2-yl)-amide] | 20.2 nM |  |
| Cn1ncc(C(=O)N[C@H]2C3CC4CC2C[C@](O)(C4)C3)c1-n1cccn1 [Example 9, trans-2′-Methyl-2′H-[1,3′]bipyrazolyl-4′-carboxylic acid (5-hydroxy-adamantan-2-yl)-amide] | 38.6 nM |  |
| O=C(NC1C2CC3CC(C2)CC1C3)c1cnn(C2CC2)c1C(F)(F)F (stereo not shown) [Example 12, 1-cyclopropyl-5-trifluoromethyl-1H-pyrazole-4-carboxylic acid adamantan-2-ylamide] | 22.2 nM |  |
| CN1CCN(c2c(C(=O)NC3C4CC5CC(C4)CC3C5)cnn2C)CC1 (stereo not shown) [Example 14, 1-Methyl-5-(4-methyl-piperazin-1-yl)-1H-pyrazole-4-carboxylic acid adamantan-2-ylamide] | 23.3 nM |  |
| Cn1ncc(C(=O)NC2C3CC4CC(C3)CC2C4)c1N1CCOCC1 (stereo not shown) [Example 22, 1-methyl-5-morpholin-4-yl-1H-pyrazole-4-carboxylic acid adamantan-2-ylamide] | 16.6 nM |  |
| COCCNc1c(C(=O)NC2C3CC4CC(C3)CC2C4)cnn1C (stereo not shown) [Example 23, 5-(2-Methoxy-ethylamino)-1-methyl-1H-pyrazole-4-carboxylic acid adamantan-2-ylamide] | 71.5 nM |  |
| COCCN(C)c1c(C(=O)NC2C3CC4CC(C3)CC2C4)cnn1C (stereo not shown) [Example 32, 5-[(2-Methoxy-ethyl)-methyl-amino]-1-methyl-1H-pyrazole-4-carboxylic acid adamantan-2-ylamide] | 26.2 nM |  |
| CC(C)(C)n1ncc(C(=O)NC2C3CC4CC(C3)CC2C4)c1-n1cccn1 (stereo not shown) [Example 33, 2′-tert-Butyl-2′H-[1,3′]bipyrazolyl-4′-carboxylic acid adamantan-2-ylamide] | 6.8 nM |  |
| CC(C)(C)n1ncc(C(=O)N[C@H]2C3CC4CC2C[C@](O)(C4)C3)c1Cl [Example 34, trans-1-tert-Butyl-5-chloro-1H-pyrazole-4-carboxylic acid (5-hydroxy-adamantan-2-yl)-amide] | 19.2 nM | 5.6 nM |
| CC(C)(C)n1ncc(C(=O)N[C@H]2C3CC4CC2C[C@](O)(C4)C3)c1-n1cccn1 [Example 35, trans-2′-tert-Butyl-2′H-[1,3′]bipyrazolyl-4′-carboxylic acid (5-hydroxy-adamantan-2-yl)-amide] | 20 nM | 0.5 nM |
| CC(=O)NC12CC3CC(C1)C(NC(=O)c1cnn(C(C)(C)C)c1Cl)C(C3)C2 (stereo not drawn) [Example 46, trans-1-tert-Butyl-5-chloro-1H-pyrazole-4-carboxylic acid (5-acetylamino-adamantan-2-yl)-amide] | 66.2 nM | 8.5 nM |
| CC(=O)NC12CC3CC(C1)C(NC(=O)c1cnn(C(C)(C)C)c1C(F)(F)F)C(C3)C2 (stereo not drawn) [Example 48, trans-1-tert-Butyl-5-trifluoromethyl-1H-pyrazole-4-carboxylic acid (5-acetylamino-adamantan-2-yl)-amide] | 18.1 nM | 0.3 nM |
| CC(=O)NC12CC3CC(C1)C(NC(=O)c1cnn(C(C)(C)C)c1-n1cccn1)C(C3)C2 (stereo not drawn) [Example 50, trans-2′-tert-Butyl-2′H-[1,3′]bipyrazolyl-4′-carboxylic acid (5-acetylamino-adamantan-2-yl)-amide] | 23.8 nM | 8 nM |
| Cn1ncc(C(=O)NC2C3CC4CC2CC(NS(C)(=O)=O)(C4)C3)c1-n1cccn1 (stereo not drawn) [Example 53, trans-2′-Methyl-2′H-[1,3′]bipyrazolyl-4′-carboxylic acid (5-methanesulfonylamino-adamantan-2-yl)-amide] | 76.9 nM | 6 nM |
| COCCOCCn1ncc(C(=O)N[C@H]2C3CC4CC2C[C@](O)(C4)C3)c1-n1cccn1 [Example 76, trans-2′-[2-(2-Methoxyethoxy)-ethyl]-2′H-[1,3′]bipryazolyl-4′-carboxylic acid (5-hydroxyadamantan-2-yl)-amide] |  | 15.3 nM |
| CC(C)(C)OCCn1ncc(C(=O)N[C@H]2C3CC4CC2C[C@](O)(C4)C3)c1C(F)(F)F [Example 77, trans-1-(2-tert-Butoxyethyl)-5-trifluoromethyl-1H-pyrazole-4-carboxylic acid (5-hydroxy-adamantan-2-yl)-amide] |  | 4.6 nM |
| trans-2′-(2-Methoxyethyl)-2′H-[1,3′]bipyrazolyl-4′-carboxylic acid (5-hydroxy-adamantan-2-yl-amide [Example 73] | 22.9 nM | 0.6 nM |
| trans-2′-Methyl-2′H-[1,3′]bipyrazolyl-4′-carboxylic acid (5-acetylamino-adamantan-2-yl)-amide [Example 45] | 48.2 nM | 5.9 nM |
